Test [1] deals with TEL-BaF3-FLT3-D835Y (stably expressing FLT3 D835Y mutant activated kinase). Briefly: Cell proliferation, Cell Titer-Glo, TEL-BaF3-FLT3-D835Y. Format: cell-based. The note with it: Mus musculus. As to the method: (§1) The above cell lines were constructed by our laboratory.
(§2) The number of viable cells was determined by quantification of ATP in living cells using the Cell Titer-Glo® (Promega, USA) chemiluminescence cell viability assay kit.

The subject of a further test is pro-B cell BaF3. Briefly: Cell proliferation, Cell Titer-Glo, BaF3. Format: cell-based. The note with it: Mus musculus, incubated for 72 hours. The method in brief:
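Cells from the in-house-constructed BaF3 lines were grown with compound. Viability was then scored by chemiluminescent detection of cellular ATP.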

Test [2] concerns TPR-MET-BaF3 (stably expressing MET kinase). Briefly: Cell proliferation, Cell Titer-Glo, TPR-MET-BaF3. The class given is cell-based. The note with it: Mus musculus; incubated for 72 hours. As to the method: as §1, §2
Test [3] deals with TEL-BaF3-BLK (stably expressing BLK kinase). Briefly: Cell proliferation, Cell Titer-Glo, TEL-BaF3-BLK. The note with it: Mus musculus; incubated for 72 hours. Format: cell-based. The procedure:
as §1, §2

Test [4] has as its system TEL-JAK1-BaF3 (stably expressing JAK1 kinase). Briefly: Cell proliferation, Cell Titer-Glo, TEL-JAK1-BaF3. The class given is cell-based. The note with it: Mus musculus; incubated for 72 hours. As to the method:
as §1, §2

Test [5] relates to TEL-BaF3-BMX (stably expressing BMX kinase). Briefly: Cell proliferation, Cell Titer-Glo, TEL-BaF3-BMX. Format: cell-based. The note with it: Mus musculus; incubated for 72 hours. As to the method: as §1, §2
Test [6] deals with TEL-cKIT-BaF3 (stably expressing cKIT kinase). Briefly: Cell proliferation, Cell Titer-Glo, TEL-cKIT-BaF3. The class given is cell-based. The note with it: Mus musculus; incubated for 72 hours. The procedure:
as §1, §2

A further test has as its target BTK protein kinase (Homo sapiens (Human), UniProt Q06187). Briefly: In vitro inhibition activity (enzymatic activity), ADP-Glo, BTK. Format: biochemical. The note with it: ATP 10 μM.
Test [7] has as its system MOLM-14 (expressing FLT3/ITD mutant gene and wild-type FLT3 gene). Briefly: Cell proliferation, Cell Titer-Glo, MOLM-14. The note with it: Homo sapiens. Format: cell-based. The procedure: as §1, §2
The subject of test [8] is MV4-11 (expressing FLT3/ITD mutant gene). Briefly: Cell proliferation, Cell Titer-Glo, MV4-11. The class given is cell-based. The note with it: Homo sapiens. The method in brief:
(§3)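 Read-out: luminescence from ATP in live cells (CellTiter-Glo), taken as viable cell number. Cell lines were built in-house.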

In test [9] the test system is MOLM-13 (expressing FLT3/ITD mutant gene and wild-type FLT3 gene). Briefly: Cell proliferation, Cell Titer-Glo, MOLM-13. Format: cell-based. The note with it: Homo sapiens. The method in brief: as §3
Test [10] deals with TEL-BaF3-FLT3/ITD (stably expressing FLT3/ITD mutant activated kinase). Briefly: Cell proliferation, Cell Titer-Glo, TEL-BaF3-FLT3/ITD. Format: cell-based, mouse. The note with it: Mus musculus, 72 h, incubated for 72 hours; read-out: TEL-BaF3-FLT3/ITD IC50. The method in brief: as §3
For test [11], the system named is U937 (expressing wild-type FLT3 gene). Briefly: Cell proliferation, Cell Titer-Glo, U937. Format: cell-based, human. The note with it: Homo sapiens, U-937, 72 h. The method in brief:
as §3

The subject of test [12] is TEL-BaF3-EGFR (stably expressing EGFR kinase). Briefly: Cell proliferation, Cell Titer-Glo, TEL-BaF3-EGFR. Format: cell-based. The note with it: Mus musculus; incubated for 72 hours. As to the method: as §1, §2
Test [13] deals with BaF3-FLT3-ITD-F691L (stably expressing FLT3/ITD F691L mutant activated kinase). Briefly: Cell proliferation, Cell Titer-Glo, BaF3-FLT3-ITD-F691L. The class given is cell-based. The note with it: Mus musculus. As to the method:
as §1, §2

For test [14], the system named is BaF3-FLT3-ITD-D835Y (stably expressing FLT3/ITD D835Y mutant activated kinase). Briefly: Cell proliferation, Cell Titer-Glo, BaF3-FLT3-ITD-D835Y. The class given is cell-based. The note with it: Mus musculus. As to the method: as §1, §2
Test [15] has as its system OCI-AML-3 (expressing FLT3 A680V mutant gene). Briefly: Cell proliferation, Cell Titer-Glo, OCI-AML3. The class given is cell-based. The note with it: Homo sapiens, incubated for 72 hours. The procedure:
as §1, §2

The mark [16] stands for this setting: incubated for 72 hours, read-out: TEL-BaF3-FLT3-D835Y IC50.
Where [17] appears, read: MOLM-14, incubated for 72 hours, read-out: MOLM-14 IC50.
The mark [18] stands for this setting: MV4-11, incubated for 72 hours, read-out: MV4-11 IC50.
Setting [19] is: MOLM-13, incubated for 72 hours, read-out: MOLM-13 IC50.
Setting [20] is: incubated for 72 hours, read-out: U937 IC50.
The mark [21] stands for this setting: incubated for 72 hours, read-out: BaF3-FLT3-ITD-F691L IC50.
The mark [22] stands for this setting: incubated for 72 hours, read-out: BaF3-FLT3-ITD-D835Y IC50.

Where two headings read alike, the source gives them in different places.

BTK protein kinase, sequence (Q06187 whole entry): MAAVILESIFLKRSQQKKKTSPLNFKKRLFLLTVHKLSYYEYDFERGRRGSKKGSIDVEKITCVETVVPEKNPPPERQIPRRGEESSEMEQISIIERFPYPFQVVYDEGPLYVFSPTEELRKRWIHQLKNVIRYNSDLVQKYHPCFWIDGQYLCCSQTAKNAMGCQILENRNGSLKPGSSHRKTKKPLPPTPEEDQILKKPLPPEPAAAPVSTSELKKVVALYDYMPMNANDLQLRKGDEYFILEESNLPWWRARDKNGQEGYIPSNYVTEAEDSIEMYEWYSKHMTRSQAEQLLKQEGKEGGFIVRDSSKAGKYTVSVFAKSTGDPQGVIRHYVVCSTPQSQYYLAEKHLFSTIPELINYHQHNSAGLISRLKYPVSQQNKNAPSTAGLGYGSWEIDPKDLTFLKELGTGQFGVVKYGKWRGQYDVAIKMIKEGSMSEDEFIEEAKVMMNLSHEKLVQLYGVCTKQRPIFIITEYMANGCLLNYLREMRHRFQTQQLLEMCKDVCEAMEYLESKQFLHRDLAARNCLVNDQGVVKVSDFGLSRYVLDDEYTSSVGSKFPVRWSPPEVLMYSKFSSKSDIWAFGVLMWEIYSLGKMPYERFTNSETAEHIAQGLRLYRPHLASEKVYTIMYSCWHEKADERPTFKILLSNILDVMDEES

On to `CC[C@@H](C)[C@@H](N)C(=O)N1CCC[C@@H](n2nc(-c3ccc(Oc4ccccc4)cc3)c3c(N)ncnc32)C1` [Compound 25, (2R,3R)-2-amino-1-((R)-3-(4-amino-(4-phenoxyphenyl)-1H-pyrazolo[3,4-d]pyrimidin-1-yl)piperidin-1-yl)-3-methylpentan-1-one], for which the IC50 in test [1] (setting [16]) came to 0.18 µM; with pro-B cell BaF3, 1700 nM; in test [2], 1700 nM; in test [3] it was 1100 nM; in test [4] it was 3300 nM; in test [5], 510 nM. Moreover, the IC50 amounted to 3100 nM in test [6]; 216 nM against BTK protein kinase; 0.19 µM in test [7] (setting [17]); 0.12 µM in test [8] (setting [18]); 0.12 µM in test [9] (setting [19]); 88 nM in test [10]. The IC50 in test [11] (setting [20]) was 1.9 µM; in [12], 890 nM.

Consider `Nc1ncnc2c1c(-c1ccc(Oc3ccccc3)cc1)nn2[C@@H]1CCCN(C(=O)[C@H](N)Cc2ccccc2)C1` [Compound 26, (R)-2-amino-1-((R)-3-(4-amino-(4-phenoxyphenyl)-1H-pyrazolo[3,4-d]pyrimidin-1-yl)piperidin-1-yl)-3-phenylpropan-1-one], for which the IC50 in test [1] (setting [16]) is 0.36 µM; in the test on pro-B cell BaF3, 1500 nM; in test [2] it was 2000 nM; in test [3], 2900 nM; in test [4], 2000 nM; in [5], 1300 nM. The IC50 is 3500 nM in [6]; 98 nM on BTK protein kinase; 0.29 µM in test [7] (setting [17]); 0.28 µM in test [8] (setting [18]); 0.2 µM in test [9] (setting [19]); 160 nM in test [10]. Besides, the values for the IC50 in [11] (setting [20]) and in test [12] were 2.4 µM and 1300 nM, respectively.

In the case of `CS(=O)(=O)NC1CCC(n2nc(-c3ccc(Oc4ccccc4)cc3)c3c(N)ncnc32)CC1` (centres unmarked) [Compound 78, N-(4-(4-amino-3-(4-phenoxyphenyl)-1H-pyrazolo[3,4-d]pyrimidin-1-yl)cyclohexyl)methanesulfonamide], the IC50 in test [1] (72 h, read-out: TEL-BaF3-FLT3-D835Y IC50 [μM]) was found to be 0.0076 µM; in the test with pro-B cell BaF3, 6000 nM; in test [3], 4 nM; in test [5] it was 38 nM; in test [6], 320 nM; in test [13] (72 h, read-out: BaF3-FLT3-ITD-F691L IC50 [μM]) it was 0.27 µM. The IC50 in test [7] (MOLM-14, 72 h, read-out: MOLM-14 IC50 [μM]) turned out to be 0.11 µM; in test [8] (MV4-11, 72 h, read-out: MV4-11 IC50 [μM]), 0.018 µM; in test [14] (72 h, read-out: BaF3-FLT3-ITD-D835Y IC50 [μM]), 0.053 µM; in test [9] (MOLM-13, 72 h, read-out: MOLM-13 IC50 [μM]), 0.019 µM; in [11] (read-out: U937 IC50 [μM], incubated for 72 hours), 3.6 µM.

With `NCC(=O)N1CCC[C@@H](n2nc(-c3ccc(Oc4ccccc4)cc3)c3c(N)ncnc32)C1` [Compound 43, (R)-2-amino-1-(3-(4-amino-(4-phenoxyphenyl)-1H-pyrazolo[3,4-d]pyrimidin-1-yl)piperidin-1-yl)ethanone], the IC50 in the test on pro-B cell BaF3 amounted to 3800 nM; in test [2] it was 2770 nM; in [3] it was 120 nM; in test [15], 5980 nM; in test [5] it was 22 nM; in [13] (setting [21]), 1.1 µM. For the same compound, the IC50 was 28 nM at BTK protein kinase; 0.028 µM in [7] (setting [17]); 0.022 µM in [8] (setting [18]); 0.41 µM in test [14] (setting [22]); 0.02 µM in [9] (setting [19]); 7 nM in test [10]. Besides, the IC50 in test [11] (setting [20]) worked out at 7.21 µM.

In the case of `CC(O)C(=O)N1CCC[C@@H](n2nc(-c3ccc(Oc4ccccc4)cc3)c3c(N)ncnc32)C1` (stereo partly drawn) [Compound 23, 1-((R)-3-(4-amino-(4-phenoxyphenyl)-1H-pyrazolo[3,4-d]pyrimidin-1-yl)piperidin-1-yl)-2-hydroxylpropan-1-one], the IC50 in test [1] (setting [16]) is 0.43 µM; in the test with pro-B cell BaF3 it was over 10000 nM; in test [2], over 10000 nM; in [3], 2800 nM; in test [4], over 10000 nM; in test [5] it was 88 nM. Also, the IC50 was found to be 4800 nM in test [6]; 204 nM against BTK protein kinase; 0.63 µM in test [7] (setting [17]); 0.32 µM in [8] (setting [18]); 0.29 µM in [9] (setting [19]); 91 nM in test [10]. Also, the IC50 in [11] (setting [20]) was 4.3 µM; in test [12] it was 6500 nM.

Consider `CN1CCC(C(=O)N2CCC[C@@H](n3nc(-c4ccc(Oc5ccccc5)cc4)c4c(N)ncnc43)C2)CC1` [Compound 33, (R)-(3-(4-amino-(4-phenoxyphenyl)-1H-pyrazolo[3,4-d]pyrimidin-1-yl)piperidin-1-yl)(1-methylpiperidin-4-yl)methanone], for which the IC50 in test [1] (setting [16]) amounted to 0.14 µM; with pro-B cell BaF3, 5000 nM; in test [2], 1450 nM; in test [3], 610 nM; in [15], 5300 nM; in test [5] it was 70 nM. The IC50 is 2010 nM in test [6]; 0.28 µM in test [13] (setting [21]); 421 nM against BTK protein kinase; 0.22 µM in test [7] (setting [17]); 0.16 µM in test [8] (setting [18]); 0.63 µM in test [14] (setting [22]). Moreover, the IC50 was 0.16 µM in test [9] (setting [19]), 77 nM in [10] and over 10 µM in [11] (setting [20]).

As to `CS(=O)(=O)N1CCC[C@@H](n2nc(-c3ccc(Oc4ccccc4)cc3)c3c(N)ncnc32)C1` [Compound 30, (R)-1-(1-(methylsulfonyl)piperidin-3-yl)-3-(4-phenoxyphenyl)-1H-pyrazolo[3,4-d]pyrimidin-4-amine], the IC50 in test [1] (setting [16]) is 0.65 µM; in the test on pro-B cell BaF3, over 10000 nM; in test [2], 9270 nM; in test [3], 3500 nM; in test [15], over 10000 nM; in [5] it was 140 nM. In addition, the IC50 in test [6] stood at 4350 nM; in test [13] (setting [21]) it was 5.3 µM; against BTK protein kinase, 1830 nM; in test [7] (setting [17]), 0.26 µM; in [8] (setting [18]), 0.17 µM; in test [14] (setting [22]), 2.5 µM. Moreover, the IC50 in test [9] (setting [19]) is 0.13 µM; in [10] it was 48 nM; in test [11] (setting [20]), over 10 µM.

As to `Nc1ncnc2c1c(-c1ccc(Oc3ccccc3)cc1)nn2[C@@H]1CCCN(C(=O)[C@H](N)Cc2ccc(O)cc2)C1` [Compound 10, (R)-2-amino-1-((R)-3-(4-amino-(4-phenoxyphenyl)-1H-pyrazolo[3,4-d]pyrimidin-1-yl)piperidin-1-yl)-3-(4-hydroxyphenyl)propan-1-one], the IC50 was 0.064 µM in test [1] (setting [16]); 1200 nM in the test with pro-B cell BaF3; 1400 nM in [2]; 1000 nM in test [3]; 400 nM in [4]; 840 nM in [5]. Further, the IC50 amounted to 1100 nM in [6]; 128 nM against BTK protein kinase; 0.11 µM in test [7] (setting [17]); 0.061 µM in [8] (setting [18]); 0.064 µM in test [9] (setting [19]); 110 nM in test [10]. For the same compound, the IC50 in [11] (setting [20]) was 3.4 µM; in test [12], 3700 nM.

(Values after patent US10266535B2, “Inhibitor of FLT3 kinase and use thereof” (HEFEI INSTITUTES OF PHYSICAL SCIENCE, CHINESE ACADEMY OF …, priority 2015, dated 2019).)
